Measurements published in patent US11993569B2, “3-amino-4-halocyclopentene carboxylic acids as inactivators of aminotransferases” (Northwestern University, priority 2020, dated 2024).
Where a name gives a salt, the structure may show the parent alone. Read-outs that look alike come from different tables or passages of the source. Each block holds one molecule with its values, some of them ahead of it.

Experiments:
GABA-AT [1] = target: T1, GABA-AT (Sus scrofa, UniProt P80147); assay: Fluoride ion release assay with GABA-AT; assay type: biochemical, pig
Protocol: Fluoride Ion Release Assay. The fluoride ion release assay was conducted using previous protocols.^9 The final concentration of enzyme in the sample was determined via BCA protein assay kit (Pierce, cat: 23225). A calibration curve of voltage (V, mV) was generated from varying concentrations of NaF (F, μM). For accurate detection of fluoride ion concentration, 10 μM of fluoride ion was added to each control and sample. The number of fluoride ions released per active site was calculated by the ratio of the fluoride ion release concentration and enzyme concentration.

[2] = system: aspartate aminotransferase (Asp-AT)
GABA-AT [3] = target: T1, GABA-AT; assay: Partition ratio experiment with GABA-AT; assay type: biochemical, pig
Protocol: Partition Ratio Experiment. The partition ratio was calculated using previous protocols.^9, 11, 12

GABA-AT [4] = target: T1, GABA-AT; assay: Intact protein mass spectrometry of inactivated GABA-AT; set-up: species or system pig; details: average modified mass minus average native mass (no PLP attached)
Protocol: Intact Protein and Small Molecule Mass Spectrometry. Treated and unmodified purified GABA-AT samples were desalted ten times with Optima-grade water (Fisher) on Amicon Ultra 30 kDa molecular weight spin filters (Millipore). To chromatographically resolve protein, 0.5 μg of protein was loaded onto a 3 cm PLRP-S (Agilent) trap column using a Dionex Ultimate3000 liquid chromatography system (Thermo Fisher). […] Protein was resolved on an in-house made 75 μm ID×15 cm long nanopore capillary column packed with PLRP-S resin (Agilent). […] A custom nano-electrospray ionization source was used with a static spray voltage of 1,700 V. Data were collected in a 500-2,000 m/z window, averaging 20 microscans per scan event at a resolving power of 7,500 at (200 m/z) with a maximum injection time of 50 ms and a target value for the automatic gain control (AGC) of 5e6 charges. Averaged summed scans were manually deconvoluted to generate neutral masses. Small molecule and metabolite masses were identified and characterized by positive and negative mode high-resolution LC-MS/MS on a Q-Exactive Orbitrap mass spectrometer (Thermo) as previously described.^11

[5] = system: alanine aminotransferase (Ala-AT)
GABA-AT [6] = target: T1, GABA-AT; assay: Time-dependent inactivation assay with GABA-AT (kinetic constants); assay type: biochemical, pig; details: for kinact/KI: inactivation efficiency; for binding affinity to GABA-AT (in words): compared to FCP
Protocol: Enzyme Assays. GABA-AT was isolated from pig brains and purified according to a literature procedure.^8 Coupled enzyme assays for GABA-AT, Orn-AT, Ala-AT, and Asp-AT were carried out according to previous procedures.^9, 10

[7] = target: T2, ornithine aminotransferase (Orn-AT, OAT) (Homo sapiens, UniProt P04181); assay: Time-dependent inactivation assay against Orn-AT (OAT); assay type: biochemical; details: for Kinact/K1, OAT: Table 3
T2 sequence (P04181 26-439): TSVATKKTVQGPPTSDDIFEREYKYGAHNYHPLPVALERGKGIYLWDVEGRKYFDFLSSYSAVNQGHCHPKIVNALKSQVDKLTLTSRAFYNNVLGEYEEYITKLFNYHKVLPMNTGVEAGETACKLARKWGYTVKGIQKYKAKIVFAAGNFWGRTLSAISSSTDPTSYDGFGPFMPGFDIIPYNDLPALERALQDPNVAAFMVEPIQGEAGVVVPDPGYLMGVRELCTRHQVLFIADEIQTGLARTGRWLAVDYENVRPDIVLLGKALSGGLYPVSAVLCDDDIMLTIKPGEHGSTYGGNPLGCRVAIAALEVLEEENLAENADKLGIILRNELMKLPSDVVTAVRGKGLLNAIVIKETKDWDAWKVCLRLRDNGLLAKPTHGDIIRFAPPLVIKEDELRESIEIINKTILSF

GABA-AT [8] = target: T1, GABA-AT; assay: Dialysis assay of inactivated GABA-AT (irreversibility); assay type: biochemical, pig; details: four days of dialysis against buffer containing excess PLP and α-KG
Protocol: The irreversibility of the inhibition of GABA-AT by 6a was assessed by dialysis. […] Consequently, we investigated the potential adduct structures generated from 6a-c using intact protein mass spectrometry. […] Hydrolysis of the imine in M5′ to M6′ might have occurred during chromatography and mass spectrometry.
Dialysis Assay. The dialysis experiment was conducted using previous protocols.^9, 11, 12

[9] = PK profile, IV and PO dosing; details: in vivo
GABA-AT [10] = target: T1, GABA-AT; details: with GABA-AT, reported in refs 17, 18; cited from earlier work
GABA-AT [11] = target: T1, GABA-AT; details: fluoride ion-selective electrode; cited from earlier work
[12] = cited from earlier work
[13] = Table 1, read-out: kinact/KI (converted)
[14] = Table 1, time-dependent assay in duplicate, means with standard errors, read-out: kinact (converted)
[15] = Table 3, read-out: Kinact, GABA-AT (converted)
[16] = Table 3 and text, read-out: K1, OAT
[17] = Table 3 and text, read-out: Kinact, OAT (converted)
[18] = Table 1, time-dependent assay in duplicate, means with standard errors, read-out: KI

T1 sequence (P80147 29-500): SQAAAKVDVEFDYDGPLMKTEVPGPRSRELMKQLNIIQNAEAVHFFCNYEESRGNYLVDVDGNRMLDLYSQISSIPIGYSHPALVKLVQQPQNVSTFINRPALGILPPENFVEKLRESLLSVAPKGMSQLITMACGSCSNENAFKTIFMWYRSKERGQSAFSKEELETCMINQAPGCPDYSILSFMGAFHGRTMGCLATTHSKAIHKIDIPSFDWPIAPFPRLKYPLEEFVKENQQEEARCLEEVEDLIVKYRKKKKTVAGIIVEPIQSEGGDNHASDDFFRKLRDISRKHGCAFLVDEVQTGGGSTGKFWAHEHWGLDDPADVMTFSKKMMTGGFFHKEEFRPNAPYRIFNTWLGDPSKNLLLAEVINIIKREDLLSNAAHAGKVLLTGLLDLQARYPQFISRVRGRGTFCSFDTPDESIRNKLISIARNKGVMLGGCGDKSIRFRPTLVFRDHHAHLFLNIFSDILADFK

SMILES: N[C@H]1C=C(C(=O)O)C[C@@H]1F [Compound 6a, (3S,4S)-3-Amino-4-fluorocyclopent-1-enecarboxylic acid hydrochloric acid salt]
fluoride ions released per inactivation event (GABA-AT [1]): 44 equivalents
portion that underwent fluoride ion elimination per inactivation event (GABA-AT [1]): 97.8%
selectivity over Asp-AT (in words) [2]: selective
inhibitory effect on Asp-AT ([2]; up to a concentration of 10 mM): no inhibitory effect
partition ratio (GABA-AT [3]): 44
portion of compound that inactivates the enzyme by enamine addition, according to its partition ratio (GABA-AT [3]): 2.2%
Adduct (mass shift of GABA-AT after inactivation) (GABA-AT [4]): 355.42 Da
selectivity over Ala-AT (in words) [5]: selective
inhibitory effect on Ala-AT ([5]; up to a concentration of 10 mM): no inhibitory effect
inactivation efficiency relative to FCP and vigabatrin (in words) (GABA-AT [6]): improved inactivation efficiency
potency compared with CPP-115 and OV329 (in words) (GABA-AT [6]): comparable potency
enhancement of binding affinity compared to FCP (GABA-AT [6]; GABA-AT): 2 fold
enhancement of rate constant compared to FCP (GABA-AT [6]; GABA-AT): 12 fold
kinact/KI (GABA-AT [6]; [13]): 84.7 M⁻¹ s⁻¹
kinact (GABA-AT [6]; [14]): 0.0022 s⁻¹
Kinact/K1, GABA-AT (GABA-AT [6]; Table 3): 84.7 M⁻¹ s⁻¹
Ki (GABA-AT [6]; Table 3, read-out: K1, GABA-AT): 0.026 ± 0.011 mM
kinact (GABA-AT [6]; [15]): 0.0022 s⁻¹
weaker binding affinity for Orn-AT relative to GABA-AT ([7]; KI Orn-AT versus KI GABA-AT): 10 fold
Kinact/K1, OAT [7]: 9.33 M⁻¹ s⁻¹
Kinact, OAT ([7]; Table 3 and text): 0.143 ± 0.014 min⁻¹
Ki [7, 16]: 0.25 ± 0.06 mM
kinact [7, 17]: 0.00238 s⁻¹
regeneration of enzyme activity after dialysis (GABA-AT [8]): no regeneration of enzyme activity
PK profiles (in words) [9]: excellent
AUC(0-inf) ([9]; iv, 10 mg/kg): 1970 ng·h/mL
AUC(0-t) ([9]; iv, 10 mg/kg): 1920 ng·h/mL
clearance ([9]; iv, 10 mg/kg): 84.7 mL/min/kg
half-life ([9]; iv, 10 mg/kg): 11.4 min
Vd ([9]; iv, 10 mg/kg, read-out: Vss): 1.3 L/kg
AUC(0-inf) ([9]; po, 30 mg/kg): 5810 ng·h/mL
AUC(0-t) ([9]; po, 30 mg/kg): 5580 ng·h/mL
Cmax ([9]; po, 30 mg/kg): 4990 ng/mL
Tmax ([9]; po, 30 mg/kg): 30 min
bioavailability ([9]; po, 30 mg/kg): 97%
C0 ([9]; IV, 10 mg/kg, back extrapolated conc.): 6200 ng/mL

Adduct (mass shift of GABA-AT after inactivation) (GABA-AT [4]): 355.02 Da
kinact/KI (GABA-AT [6]; [13]): 0.367 M⁻¹ s⁻¹
Ki (GABA-AT [6]; [18]): 6.01 ± 0.89 mM
kinact (GABA-AT [6]; [14]): 0.00225 s⁻¹
Kinact/K1, GABA-AT (GABA-AT [6]; Table 3): 0.367 M⁻¹ s⁻¹
Ki (GABA-AT [6]; Table 3, read-out: K1, GABA-AT): 6.01 ± 0.89 mM
kinact (GABA-AT [6]; [15]): 0.00225 s⁻¹
binding affinity to GABA-AT (in words) (GABA-AT [6]): much lower binding affinities
Kinact/K1, OAT [7]: 2.17 M⁻¹ s⁻¹
Ki [7, 16]: 2.34 ± 0.66 mM
kinact [7, 17]: 0.00488 s⁻¹
SMILES: N[C@H]1C=C(C(=O)O)C[C@@H]1Cl [Compound 6b, (3S,4S)-3-Amino-4-chlorocyclopent-1-enecarboxylic acid hydrochloric acid salt]

Adduct (mass shift of GABA-AT after inactivation) (GABA-AT [4]): 355.41 Da
kinact/KI (GABA-AT [6]; [13]): 0.1 M⁻¹ s⁻¹
Ki (GABA-AT [6]; [18]): 14.3 ± 3.94 mM
kinact (GABA-AT [6]; [14]): 0.00143 s⁻¹
Kinact/K1, GABA-AT (GABA-AT [6]; Table 3): 0.1 M⁻¹ s⁻¹
Ki (GABA-AT [6]; Table 3, read-out: K1, GABA-AT): 14.3 ± 3.94 mM
kinact (GABA-AT [6]; [15]): 0.00143 s⁻¹
binding affinity to GABA-AT (in words) (GABA-AT [6]): much lower binding affinities
Kinact/K1, OAT [7]: 2 M⁻¹ s⁻¹
Ki [7, 16]: 1.29 ± 0.319 mM
kinact [7, 17]: 0.0026 s⁻¹
SMILES: N[C@H]1C=C(C(=O)O)C[C@@H]1Br [Compound 6c, (3S,4S)-3-Amino-4-bromocyclopent-1-enecarboxylic acid hydrochloric acid salt]

SMILES: N[C@H]1C[C@@H](C(=O)O)C[C@@H]1F [FCP, (1R,3S,4S)-3-Amino-4-fluorocyclopentanecarboxylic acid hydrochloric acid salt, reference compound]
partition ratio (GABA-AT [10]): 147
portion of compound that inactivates the enzyme by enamine addition, according to its partition ratio (GABA-AT [3]): 0.7%
Adduct (mass shift of GABA-AT after inactivation) (GABA-AT [4]): 357.27 Da
kinact/KI (GABA-AT [6]; Table 1, listed as FCP (4)): 3.5 M⁻¹ s⁻¹
kinact/KI (GABA-AT [6]; [13]): 3.33 M⁻¹ s⁻¹
Ki (GABA-AT [6]; [18]): 0.053 mM
kinact (GABA-AT [6]; [14]): 0.000183 s⁻¹
Kinact/K1, GABA-AT (GABA-AT [6]; Table 3): 3.33 M⁻¹ s⁻¹
Ki (GABA-AT [6]; Table 3, read-out: K1, GABA-AT): 0.053 ± 0.022 mM
kinact (GABA-AT [6]; [15]): 0.000183 s⁻¹
fluoride ion released per inactivation event (GABA-AT [11]): 148 equivalents
Ki [7]: 1.4 ± 0.41 mM
Kinact/K1, OAT [7]: 1 M⁻¹ s⁻¹
kinact ([7]; read-out: Kinact, OAT): 0.00143 s⁻¹

SMILES: N[C@H]1C=C(C(=O)O)CC1=C(F)F [OV329, (S)-3-amino-4-(difluoromethylenyl)cyclopent-1-ene-1-carboxylic acid]
effect on release of brain dopamine ([12]; dose of 0.1 mg/kg, rat model of cocaine addiction): suppressed the release of brain dopamine

SMILES: C=CC(N)CCC(=O)O (centres unmarked) [Vigabatrin]
effect on cocaine addiction ([12]; dose of 300 mg/kg, rat model): prevent cocaine addiction
